Test systems include IGROV1 ovarian; OVCAR-5 ovarian; SK-MEL-2 melanoma; MALME-3M melanoma; SF-295 CNS; SF-539 CNS; TK-10 renal; NCI-H460 lung; UACC-62 melanoma; UACC-257 melanoma.
Assay in all cases: growth of human tumour cells (NCI), 48 h

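Method: 48-hour compound exposure of cells in 96-well plates, five concentrations, linear interpolation of endpoints. The concentration for 50% growth inhibition is given as GI50. TGI marks complete inhibition of growth.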

For `O=C1c2ccccc2-c2ccc(NC(=O)C3CCCCC3C(=O)O)cc21` (stereo not drawn), the TGI in the assay on IGROV1 ovarian, in the assay on OVCAR-5 ovarian, in the assay with SK-MEL-2 melanoma, in the assay with MALME-3M melanoma, in the assay with SF-295 CNS and in the assay on SF-539 CNS was over 100 µM each time. The TGI in the assay with TK-10 renal, in the assay on NCI-H460 lung, with UACC-62 melanoma and in the assay with UACC-257 melanoma was over 100 µM throughout.
In the case of `O=CNc1cccc2c3c([nH]c12)CCCCCC3`, the TGI in the assay with IGROV1 ovarian, with OVCAR-5 ovarian, in the assay with SK-MEL-2 melanoma, with MALME-3M melanoma, in the assay on SF-295 CNS and in the assay with SF-539 CNS was over 100 µM in each case. Also, the TGI in the assay with NCI-H460 lung, with UACC-62 melanoma and in the assay with UACC-257 melanoma was over 100 µM each time.
Take `CC(C)(C)OC(=O)NC(Cc1ccccc1)C(=O)N[C@H]1c2ccsc2/C(=N/O)[C@H]1O` (stereo partly drawn): the TGI in the assay with IGROV1 ovarian, in the assay with OVCAR-5 ovarian, with SK-MEL-2 melanoma, in the assay on MALME-3M melanoma, in the assay with SF-295 CNS and in the assay with SF-539 CNS was over 100 µM in each case. For the same molecule, the TGI in the assay with TK-10 renal, with NCI-H460 lung, in the assay on UACC-62 melanoma and in the assay with UACC-257 melanoma was over 100 µM each time.
On to `CCOC(=O)C1C(c2cc(OC)c(O)c(OC)c2)c2cc3c(cc2OC1(C)O)OCO3` (stereo not drawn), for which the TGI in the assay on IGROV1 ovarian, in the assay with SK-MEL-2 melanoma, in the assay with MALME-3M melanoma, in the assay with SF-295 CNS, in the assay on SF-539 CNS and with TK-10 renal was over 100 µM in each case. Moreover, the TGI in the assay with NCI-H460 lung, in the assay with UACC-62 melanoma and in the assay with UACC-257 melanoma was over 100 µM throughout.
Turning to `C=C1C(=O)O[C@H]2C1[C@H](OC(=O)/C(C)=C\COC(C)=O)C[C@]1(CO1)[C@@H]1[C@H](O)[C@H]3O[C@@]3(C)[C@@H]12` (stereo partly drawn), the TGI is 59.8 µM in the assay with IGROV1 ovarian; over 100 µM with OVCAR-5 ovarian; 48.8 µM with SK-MEL-2 melanoma; 38 µM in the assay on MALME-3M melanoma; over 100 µM in the assay on SF-295 CNS; over 65.4 µM with SF-539 CNS. Besides, the TGI in the assay with NCI-H460 lung was over 100 µM; in the assay with UACC-62 melanoma it was 30.4 µM; in the assay with UACC-257 melanoma it was 31.3 µM.
As to `Cc1cc(NS(=O)(=O)c2ccc(Nc3c4ccccc4nc4c(C(=O)NCCN(C)C)ccc(Cl)c34)cc2)no1`, the TGI with IGROV1 ovarian worked out at 20.7 µM; in the assay on OVCAR-5 ovarian, 28.5 µM; with SK-MEL-2 melanoma, 19.7 µM; in the assay with SF-295 CNS, 16.2 µM; in the assay on SF-539 CNS it was 14.6 µM; in the assay on TK-10 renal, 27.1 µM. In addition, the TGI in the assay on NCI-H460 lung is 11.4 µM; with UACC-62 melanoma it was 10.4 µM.
On to `Cc1ccc2c(c1)c(=O)c1c(NCCN(C)C)ccc3nnn2c31`, for which the TGI with IGROV1 ovarian amounted to 23 µM; in the assay with OVCAR-5 ovarian, 12.4 µM; in the assay on SK-MEL-2 melanoma, 21.1 µM; in the assay on MALME-3M melanoma, 18 µM; in the assay on SF-295 CNS, 15.4 µM; in the assay with SF-539 CNS, 17.8 µM. Also, the TGI is 28.3 µM in the assay with TK-10 renal, 10.2 µM in the assay on NCI-H460 lung, 20.5 µM with UACC-62 melanoma and 14.2 µM in the assay on UACC-257 melanoma.
For the molecule `CCCCc1ccc2[n+](c1)C(C(=O)OCC)=PC2` (stereo not drawn), the TGI in the assay on IGROV1 ovarian, with OVCAR-5 ovarian, in the assay with MALME-3M melanoma, in the assay on SF-295 CNS, in the assay with SF-539 CNS and in the assay with TK-10 renal was over 100 µM throughout. In addition, the TGI with NCI-H460 lung, in the assay with UACC-62 melanoma and with UACC-257 melanoma was over 100 µM throughout.
Turning to `COc1cc(N=Nc2cccc(S(=O)(=O)O)c2)c(C)cc1N=Nc1ccc(/C=C/c2ccc(N=[N+]([O-])c3ccc(/C=C/c4ccc(N=Nc5cc(C)c(N=Nc6cccc(S(=O)(=O)O)c6)cc5OC)cc4)c(S(=O)(=O)O)c3)cc2S(=O)(=O)O)cc1`, the TGI in the assay with IGROV1 ovarian, in the assay on OVCAR-5 ovarian, in the assay on SK-MEL-2 melanoma, in the assay with MALME-3M melanoma, in the assay with SF-295 CNS and in the assay with SF-539 CNS was over 100 µM throughout. Besides, the TGI in the assay on NCI-H460 lung, in the assay with UACC-62 melanoma and in the assay on UACC-257 melanoma was over 100 µM throughout.
In the case of `COC(=O)C(C)N1C(=O)c2ccccc2I1OC(C)=O` (stereo not drawn), the GI50 was 37.2 µM in the assay on IGROV1 ovarian; over 100 µM with OVCAR-5 ovarian; over 100 µM with SK-MEL-2 melanoma; 16.8 µM with MALME-3M melanoma; over 100 µM with SF-295 CNS; 31.7 µM with SF-539 CNS. For the same molecule, the GI50 with TK-10 renal is 29.2 µM; with NCI-H460 lung, over 100 µM; with UACC-62 melanoma, 23 µM; with UACC-257 melanoma, over 100 µM. Further, the TGI is over 100 µM in the assay on IGROV1 ovarian; over 100 µM with OVCAR-5 ovarian; over 100 µM in the assay with SK-MEL-2 melanoma; 54 µM in the assay with MALME-3M melanoma; over 100 µM with SF-295 CNS; over 100 µM with SF-539 CNS. The TGI in the assay with TK-10 renal, in the assay with NCI-H460 lung, in the assay with UACC-62 melanoma and in the assay on UACC-257 melanoma was over 100 µM in each case.

Source of the values: PubChem BioAssay (NCI).
